Results published in patent US4820694A, “Modifications of 3-O-demethylmycinose in macrocin and lactenocin” (priority 1986, dated 1989).
Values after ≈ are worked out from the molar mass of the structure shown. Where two headings read alike, the source gives them in different places.

What was measured:
[1] = tested on: Streptococcus pneumoniae Park I; assay: microbe, parasite or virus in culture; assay type: cell-based; settings: Streptococcus pneumoniae
Method: (§1) The MIC's in Table III were determined by standard agar-dilution assays. The MIC's in Table IV were obtained using conventional brothdilution microtiter tests.

[2] = tested on: Staphylococcus aureus S13E; assay: microbe, parasite or virus in culture; assay type: cell-based; settings: Staphylococcus aureus, S13E
Method: as §1

[3] = tested on: Streptococcus Group D 9960; assay: standard agar-dilution MIC assay; assay type: cell-based; settings: GROUPD9960, read-out: MIC
Method: as §1

[4] = tested on: Pseudomonas aeruginosa X239; assay: standard agar-dilution MIC assay; assay type: cell-based; settings: Pseudomonas aeruginosa, X239
Method: as §1

[5] = tested on: Staphylococcus aureus V41; assay: standard agar-dilution MIC assay; assay type: cell-based; settings: Staphylococcus aureus, V41
Method: as §1

[6] = tested on: Klebsiella pneumoniae X68; assay: standard agar-dilution MIC assay; assay type: cell-based; settings: Klebsiella pneumoniae, X68
Method: as §1

[7] = tested on: Streptococcus pyogenes C203; assay: standard agar-dilution MIC assay; assay type: cell-based; settings: Streptococcus pyogenes, C203
Method: as §1

[8] = tested on: Staphylococcus epidermidis EPI1; assay: standard agar-dilution MIC assay; assay type: cell-based; settings: Staphylococcus epidermidis, EPI1
Method: as §1

[9] = tested on: Haemophilus influenzae C.L.; assay: standard agar-dilution MIC assay; assay type: cell-based; settings: Haemophilus influenzae
Method: as §1

[10] = tested on: Streptococcus Group D X66; assay: standard agar-dilution MIC assay; assay type: cell-based; settings: read-out: MIC
Method: as §1

[11] = tested on: Staphylococcus aureus X1.1; assay: standard agar-dilution MIC assay; assay type: cell-based; settings: Staphylococcus aureus, X1.1
Method: as §1

[12] = tested on: Haemophilus influenzae 76; assay: standard agar-dilution MIC assay; assay type: cell-based; settings: Haemophilus influenzae, 76
Method: as §1

Escherichia coli EC14 = assay: standard agar-dilution MIC assay; assay type: cell-based
Method: as §1

[13] = tested on: Staphylococcus aureus X400; assay: standard agar-dilution MIC assay; assay type: cell-based; settings: Staphylococcus aureus, X400
Method: as §1

[14] = tested on: Pasteurella hemolytica 41D; assay: broth-dilution microtiter MIC test; assay type: cell-based; settings: Pasteurella, 41D
Method: as §1

[15] = tested on: Pasteurella hemolytica 22C; assay: broth-dilution microtiter MIC test; assay type: cell-based; settings: Pasteurella, 22C
Method: as §1

[16] = tested on: Pasteurella multocida 60A; assay: broth-dilution microtiter MIC test; assay type: cell-based; settings: Pasteurella multocida, 60A
Method: as §1

[17] = tested on: Mycoplasma gallisepticum 15E; assay: broth-dilution microtiter MIC test; assay type: cell-based; settings: Mycoplasmoides gallisepticum, 15E
Method: as §1

[18] = tested on: Mycoplasma gallisepticum 36H; assay: broth-dilution microtiter MIC test; assay type: cell-based; settings: Mycoplasmoides gallisepticum, 36H
Method: as §1

Mycoplasma hyorhinis 29E = assay: broth-dilution microtiter MIC test; assay type: cell-based; settings: Mycoplasma, 29E
Method: as §1

[19] = tested on: Pasteurella multocida 68C; assay: broth-dilution microtiter MIC test; assay type: cell-based; settings: Pasteurella multocida, 68C
Method: as §1

[20] = tested on: Pasteurella multocida 22A; assay: broth-dilution microtiter MIC test; assay type: cell-based; settings: Pasteurella multocida, 22A
Method: as §1

[21] = tested on: Staphylococcus aureus 19C; assay: broth-dilution microtiter MIC test; assay type: cell-based; settings: Staphylococcus aureus, 19C
Method: as §1

Streptococcus sp. 19F = assay: broth-dilution microtiter MIC test; assay type: cell-based; settings: Streptococcus, SP.19F
Method: as §1

[22] = tested on: Pasteurella multocida 40G; assay: broth-dilution microtiter MIC test; assay type: cell-based; settings: Pasteurella multocida, 40G
Method: as §1

Mycoplasma synoviae 40A = assay: broth-dilution microtiter MIC test; assay type: cell-based; settings: Mycoplasmopsis synoviae, 40A
Method: as §1

[23] = tested on: Bordetella bronchiseptica; assay: broth-dilution microtiter MIC test; assay type: cell-based; settings: Bordetella bronchiseptica
Method: as §1

[24] = tested on: Pasteurella multocida 17E; assay: broth-dilution microtiter MIC test; assay type: cell-based; settings: Pasteurella multocida, 17E
Method: as §1

[25] = tested on: Pasteurella hemolytica 23C; assay: broth-dilution microtiter MIC test; assay type: cell-based; settings: Pasteurella, 23C
Method: as §1

[26] = tested on: Mycoplasma gallisepticum 29C; assay: broth-dilution microtiter MIC test; assay type: cell-based; settings: Mycoplasmoides gallisepticum, 29C
Method: as §1

[27] = tested on: Streptococcus pyogenes C203; assay: protection of mice experimentally infected with S. pyogenes C203; assay type: in vivo
Method: The formula 1 compounds have shown in vivo antimicrobial activity against experimentally-induced infections in laboratory animals. When two doses of test compound were administered to mice experimentally infected with S. pyrogenes C203, the activity observed was measured as an ED50 value [effective dose in mg/kg to protect 50% of the test animals: see Warren Wick, et al., J. Bacteriol. 81, 233-235 (1961)].
^a mg/kg × 2; doses given 1 and 4 hours postinfection

[28] = broth-dilution microtiter, read-out: MIC

Compound | MIC [1] [µg/mL] | MIC [2] [µg/mL] | MIC [3] [µg/mL] | MIC [5] [µg/mL] | MIC [7] [µg/mL] | MIC [8] [µg/mL] | MIC [9] [µg/mL] | MIC [10] [µg/mL] | MIC [11] [µg/mL] | MIC [12] [µg/mL] | MIC [13] [µg/mL] | MIC [17] [µg/mL] | MIC [18] [µg/mL] | MIC (Mycoplasma hyorhinis 29E) [µg/mL] | MIC [19] [µg/mL] | MIC [21] [µg/mL] | MIC (Streptococcus sp. 19F) [µg/mL] | MIC [22] [µg/mL] | MIC (Mycoplasma synoviae 40A) [µg/mL] | MIC [26] [µg/mL] | other results
CCC1OC(=O)CC(O)C(C)C(OC2OC(C)C(OC3CC(C)(O)C(O)C(C)O3)C(N(C)C)C2O)C(CC=O)CC(C)C(=O)C=CC(C)=CC1COC1OC(C)C(OC(=O)Cc2ccccc2)C(O)C1OC (stereo not shown) [Compound 10, 4'"-O-Phenylacetyl-macrocin] | 0.25 (≈ 0.245 µM) | 1 (≈ 0.98 µM) | 1 (≈ 0.98 µM) | 1 (≈ 0.98 µM) | 0.5 (≈ 0.49 µM) | 1 (≈ 0.98 µM) | 32 (≈ 31.4 µM) | 1 (≈ 0.98 µM) | 1 (≈ 0.98 µM) | 16 (≈ 15.7 µM) | 2 (≈ 1.96 µM) | 12.5 (≈ 12.3 µM) | 12.5 (≈ 12.3 µM) | 3.12 (≈ 3.06 µM) | 50 (≈ 49 µM) | 1.56 (≈ 1.53 µM) | 0.78 (≈ 0.765 µM) | > 50 | 1.56 (≈ 1.53 µM) | 0.39 (≈ 0.382 µM) | MIC [4]: > 128 µg/mL; MIC [6]: > 128 µg/mL; MIC (Escherichia coli EC14): > 128 µg/mL; MIC [14]: > 50 µg/mL; MIC [15]: > 50 µg/mL; MIC [16]: > 50 µg/mL; MIC [20]: > 50 µg/mL; MIC [23]: > 50 µg/mL; MIC [24]: 50 µg/mL (≈ 49 µM); MIC [25]: > 50 µg/mL; ED50 ([27]; C203, po): 38.8 mg/kg; ED50 ([27]; C203, sc): 1.9 mg/kg
CCC1OC(=O)CC(O)C(C)C(OC2OC(C)C(O)C(N(C)C)C2O)C(CC=O)CC(C)C(=O)C=CC(C)=CC1COC1OC(C)C(OC(C)=O)C(OC(=O)COc2ccccc2)C1OC (stereo not shown) [Compound 38, 4"-O-Acetyl-3"-O-phenoxyacetyl-lactenocin] | 0.25 (≈ 0.268 µM) | 1 (≈ 1.07 µM) | 2 (≈ 2.14 µM) | 1 (≈ 1.07 µM) | 0.5 (≈ 0.535 µM) | 1 (≈ 1.07 µM) | 16 (≈ 17.1 µM) | 2 (≈ 2.14 µM) | 1 (≈ 1.07 µM) | 8 (≈ 8.56 µM) | 2 (≈ 2.14 µM) | 25 (≈ 26.8 µM) | 12.5 (≈ 13.4 µM) | 12.5 (≈ 13.4 µM) | 12.5 (≈ 13.4 µM) | 3.12 (≈ 3.34 µM) | 0.78 (≈ 0.835 µM) | 25 (≈ 26.8 µM) | 0.78 (≈ 0.835 µM) | 0.39 (≈ 0.418 µM) | MIC ([4]; agar-dilution, read-out: MIC): > 128 µg/mL; MIC ([6]; agar-dilution, read-out: MIC): > 128 µg/mL; MIC (Escherichia coli EC14; agar-dilution, read-out: MIC): > 128 µg/mL; MIC [14]: 50 µg/mL (≈ 53.5 µM); MIC [15]: 25 µg/mL (≈ 26.8 µM); MIC [16]: 12.5 µg/mL (≈ 13.4 µM); MIC [20]: 25 µg/mL (≈ 26.8 µM); MIC [23, 28]: > 50 µg/mL; MIC [24]: 25 µg/mL (≈ 26.8 µM); MIC [25]: 25 µg/mL (≈ 26.8 µM)
CCC1OC(=O)CC(O)C(C)C(OC2OC(C)C(O)C(N(C)C)C2O)C(CC=O)CC(C)C(=O)C=CC(C)=CC1COC1OC(C)C(OC(=O)CC(C)C)C(OC(=O)CC(C)C)C1OC (stereo not shown) [Compound 28, 3",4"-Di-O-isovaleryl-lactenocin] | 0.5 (≈ 0.54 µM) | 2 (≈ 2.16 µM) | 4 (≈ 4.32 µM) | 2 (≈ 2.16 µM) | 2 (≈ 2.16 µM) | 2 (≈ 2.16 µM) | – | 4 (≈ 4.32 µM) | 2 (≈ 2.16 µM) | 64 (≈ 69.1 µM) | 4 (≈ 4.32 µM) | 25 (≈ 27 µM) | 50 (≈ 54 µM) | 6.25 (≈ 6.75 µM) | 50 (≈ 54 µM) | 6.25 (≈ 6.75 µM) | 3.12 (≈ 3.37 µM) | 50 (≈ 54 µM) | 12.5 (≈ 13.5 µM) | 1.56 (≈ 1.68 µM) | MIC ([4]; agar-dilution, read-out: MIC): > 128 µg/mL; MIC ([6]; agar-dilution, read-out: MIC): > 128 µg/mL; MIC ([9]; agar-dilution, Ampicillin-sensitive strain, read-out: MIC): 128 µg/mL (≈ 138 µM); MIC (Escherichia coli EC14; agar-dilution, read-out: MIC): > 128 µg/mL; MIC [14, 28]: > 50 µg/mL; MIC [15, 28]: > 50 µg/mL; MIC ([16]; broth-dilution microtiter, Avian isolate, read-out: MIC): > 50 µg/mL; MIC [20, 28]: > 50 µg/mL; MIC [23, 28]: > 50 µg/mL; MIC ([24]; broth-dilution microtiter, Bovine isolate, read-out: MIC): > 50 µg/mL; MIC [25, 28]: > 50 µg/mL; ED50 ([27]; C203, Oral, mice, mg/kg × 2, doses given 1 and 4 hours postinfection, read-out: ED50): 21.4 mg/kg; ED50 ([27]; C203, sc, Subcutaneous, mice, mg/kg × 2, doses given 1 and 4 hours postinfection, read-out: ED50): > 6.25 mg/kg
